In patent US9139542B2, “Crystalline form of a substituted thiazolylacetic acid triethylamine salt” (THERAVANCE BIOPHARMA ANTIBIOTICS IP, LLC, priority 2013, dated 2015):

Assays:
[1] = Thermogravimetric analysis (TGA); type: physicochemical
Protocol: Thermogravimetric analysis (TGA) was performed using a TA Instruments Model Q-500 module equipped with high resolution capability. Data were collected and analyzed using TA Instruments Thermal Solutions software. A sample of crystalline (2Z)-2-(2-amino-5-chlorothiazol-4-yl)-2-(3-N-tert -butoxycarbonylaminopropoxyimino)acetic acid triethylamine salt (about 10 mg) was placed onto a platinum pan and scanned with a high resolution-heating rate from ambient temperature to 300° C. The balance and furnace chambers were purged with nitrogen flows during use.

[2] = Dynamic moisture sorption (DMS) assessment; type: physicochemical
Protocol: A dynamic moisture sorption (DMS) assessment (also known as a moisture sorption-desorption profile) was performed using a VTI atmospheric microbalance, SGA-100 system (VTI Corp., Hialeah, Fla. 33016). A sample of crystalline (2Z)-2-(2-amino-5-chlorothiazol-4-yl)-2-(3-N-tert-butoxycarbonylaminopropoxyimino)acetic acid triethylamine salt (about 10 mg) was used and the humidity was set at the ambient value at the start of the analysis. A typical DMS analysis consisted of three scans: ambient to 5% relative humidity (RH), 5% RH to 90% RH, 90% RH to 5% RH at a scan rate of 5% RH/step. The mass was measured every two minutes and the RH was changed to the next value (+/−5% RH) when the mass of the sample was stable to within 0.01% for 5 consecutive points.

CC(C)(C)OC(=O)NCCCO/N=C(\C(=O)O)c1nc(N)sc1Cl.CCN(CC)CC [crystalline form, (2Z)-2-(2-amino-5-chlorothiazol-4-yl)-2-(3-N-tert-butoxycarbonylaminopropoxyimino)acetic acid triethylamine salt]
weight loss (TGA) ([1]; above 120° C., likely post-melting evaporation of triethylamine and decomposition): about 50%
weight loss (TGA) ([1]; temperature range of from 20° C. to 120° C.): less than 0.25%
hygroscopicity (reversible moisture sorption/desorption profile) ([2]; 5% RH to 90% RH to 5% RH): acceptable hygroscopicity
weight gain (moisture sorption) ([2]; humidity range of 5% RH to 60% RH): insignificant weight gain
weight gain (moisture sorption) ([2]; humidity range of 60% RH to 90% RH): about 5.56%
moisture loss on initial drying (DMS) ([2]; initial drying, ambient to 5% RH): 0.56 % by weight
